Assay: wn = mass fraction of the nth substance listed
Conditions: 101 kPa, Liquid; for viscosity: Capillary tube (Ostwald / Ubbelohde) method; for mass density: Pycnometric method

O=[N+]([O-])[O-].[Li+] [lithium nitrate] + O
Conditions | mass density [kg/m3] | viscosity [mPa·s]
283.15 K, w1 = 0.3 | 1203 | 2.41
293.15 K, w1 = 0.3 | 1199 | 1.902
293.15 K, w1 = 0.35 | 1236 | 2.241
293.15 K, w1 = 0.4 | 1274 | 2.791
303.15 K, w1 = 0.3 | 1193 | 1.535
303.15 K, w1 = 0.35 | 1231 | 1.85
303.15 K, w1 = 0.4 | 1269 | 2.24
303.15 K, w1 = 0.45 | 1314 | 2.87
303.15 K, w1 = 0.5 | 1358 | 3.839
303.15 K, w1 = 0.55 | 1405 | 5.357
313.15 K, w1 = 0.3 | 1188 | 1.3
313.15 K, w1 = 0.35 | 1225 | 1.552
313.15 K, w1 = 0.4 | 1263 | 1.888
313.15 K, w1 = 0.45 | 1307 | 2.363
313.15 K, w1 = 0.5 | 1352 | 3.114
313.15 K, w1 = 0.55 | 1398 | 4.299
313.15 K, w1 = 0.6 | 1449 | 6.274
323.15 K, w1 = 0.3 | 1179 | 1.112
323.15 K, w1 = 0.35 | 1216 | 1.306
323.15 K, w1 = 0.4 | 1257 | 1.58
323.15 K, w1 = 0.45 | 1300 | 1.994
323.15 K, w1 = 0.5 | 1346 | 2.543
323.15 K, w1 = 0.55 | 1391 | 3.515
323.15 K, w1 = 0.6 | 1440 | 4.961
333.15 K, w1 = 0.3 | 1173 | 0.95
333.15 K, w1 = 0.35 | 1210 | 1.134
333.15 K, w1 = 0.4 | 1250 | 1.356
333.15 K, w1 = 0.45 | 1293 | 1.7
333.15 K, w1 = 0.5 | 1339 | 2.143
333.15 K, w1 = 0.55 | 1384 | 2.926
333.15 K, w1 = 0.6 | 1432 | 4.153
333.15 K, w1 = 0.65 | 1494 | 5.721
343.15 K, w1 = 0.3 | 1166 | 0.826
343.15 K, w1 = 0.35 | 1203 | 0.985
343.15 K, w1 = 0.4 | 1243 | 1.182
343.15 K, w1 = 0.45 | 1286 | 1.479
343.15 K, w1 = 0.5 | 1331 | 1.854
343.15 K, w1 = 0.55 | 1376 | 2.493
343.15 K, w1 = 0.6 | 1424 | 3.472
343.15 K, w1 = 0.65 | 1486 | 4.764
353.15 K, w1 = 0.3 | 1159 | 0.731
353.15 K, w1 = 0.35 | 1196 | 0.864
353.15 K, w1 = 0.4 | 1236 | 1.041
353.15 K, w1 = 0.45 | 1279 | 1.302
353.15 K, w1 = 0.5 | 1324 | 1.616
353.15 K, w1 = 0.55 | 1369 | 2.158
353.15 K, w1 = 0.6 | 1416 | 2.955
353.15 K, w1 = 0.65 | 1479 | 4.02
363.15 K, w1 = 0.3 | 1152 | 0.65
363.15 K, w1 = 0.35 | 1189 | 0.773
363.15 K, w1 = 0.4 | 1230 | 0.927
363.15 K, w1 = 0.45 | 1272 | 1.149
363.15 K, w1 = 0.5 | 1317 | 1.466
363.15 K, w1 = 0.55 | 1361 | 1.882
363.15 K, w1 = 0.6 | 1408 | 2.564
363.15 K, w1 = 0.65 | 1472 | 3.394
373.15 K, w1 = 0.3 | 1144 | 0.586
373.15 K, w1 = 0.35 | 1181 | 0.7
373.15 K, w1 = 0.4 | 1222 | 0.837
373.15 K, w1 = 0.45 | 1265 | 1.034
373.15 K, w1 = 0.5 | 1309 | 1.306
373.15 K, w1 = 0.55 | 1353 | 1.693
373.15 K, w1 = 0.6 | 1400 | 2.248
373.15 K, w1 = 0.65 | 1464 | 2.953
383.15 K, w1 = 0.4 | 1213 | 0.763
383.15 K, w1 = 0.45 | 1258 | 0.938
383.15 K, w1 = 0.5 | 1301 | 1.175
383.15 K, w1 = 0.55 | 1346 | 1.505
383.15 K, w1 = 0.6 | 1393 | 1.993
383.15 K, w1 = 0.65 | 1456 | 2.615
393.15 K, w1 = 0.5 | 1294 | –
393.15 K, w1 = 0.55 | 1338 | 1.371
393.15 K, w1 = 0.6 | 1385 | 1.785
393.15 K, w1 = 0.65 | 1448 | 2.307
403.15 K, w1 = 0.6 | 1377 | 1.625
403.15 K, w1 = 0.65 | 1440 | 2.095
413.15 K, w1 = 0.65 | 1430 | 1.923

Source: the NIST ThermoML archive (doi:10.1021/je301084m)
